What was measured:
[1] = system: albino rats; test: acute toxicity studies; format: in vivo, rat; details: oral
[2] = system: carrageenan-induced paw edema; test: carrageenan-induced rat paw edema, in vivo anti-inflammatory activity; details: diclofenac sodium = 1

Row | SMILES | toxicity in laboratory tests [1] | Effectiveness [2]
1 | Clc1ccc(-c2nocc2-c2ccccc2)cc1 [5b, 3-(4-Chloro-phenyl)-4-phenyl-isoxazole] | low toxicity | 0.83
2 | Oc1ccc(-c2nocc2-c2ccccc2)cc1 [5c, 4-(4-Phenyl-isoxazol-3-yl)-phenol] | low toxicity | 0.81
3 | Oc1cccc(-c2nocc2-c2ccccc2)c1 [5d, 3-(4-Phenyl-isoxazol-3-yl)-phenol] | low toxicity | 0.71
4 | O=[N+]([O-])c1cccc(-c2nocc2-c2ccccc2)c1 [5e, 3-(3-Nitro-phenyl)-4-phenyl-isoxazole] | – | 0.16
5 | O=[N+]([O-])c1ccc(-c2nocc2-c2ccccc2)cc1 [5f, 3-(4-Nitro-phenyl)-4-phenyl-isoxazole] | – | 0.66
6 | Brc1cccc(-c2nocc2-c2ccccc2)c1 [5g, 3-(3-Bromo-phenyl)-4-phenyl-isoxazole] | – | 0.22
7 | Brc1ccc(-c2nocc2-c2ccccc2)cc1 [5h, 3-(4-Bromo-phenyl)-4-phenyl-isoxazole] | – | 0.02
8 | Clc1cccc(-c2nocc2-c2ccccc2)c1 [5i, 3-(3-Chloro-phenyl)-4-phenyl-isoxazole] | – | 0.55
9 | Fc1ccc(-c2nocc2-c2ccccc2)cc1 [5j, 3-(4-Fluoro-phenyl)-4-phenyl-isoxazole] | – | 0.80
10 | COc1ccccc1-c1nocc1-c1ccccc1 [5k, 3-(2-Methoxy-phenyl)-4-phenyl-isoxazole] | – | 0.09
11 | COc1cccc(-c2nocc2-c2ccccc2)c1 [5l, 3-(3-Methoxy-phenyl)-4-phenyl-isoxazole] | – | 0.57
12 | COc1ccc(-c2nocc2-c2ccccc2)cc1 [5m, 3-(4-Methoxy-phenyl)-4-phenyl-isoxazole] | – | 0.63
13 | O=C(O)Cc1ccccc1Nc1c(Cl)cccc1Cl [Diclofenac sodium, reference compound] | – | 1

Reference: article PMC11617876 (Heliyon, 2024)
